Consider four molecules from patent US6599896B1 (Les Laboratoires Servier, priority 1999, dated 2003).

The subject of assay [1] is cortical neurons in culture. In words: In vitro neurotoxicity caused by hypoxia in cortical cells (LDH activity). The settings on record: 20 μM; 3 hours hypoxia, LDH after 24 hours. In kind it is cell-based, rat. How it is done: (§1) Cortical cells are extracted from Sprague-Dawley rat foetuses and cultured in MEM (minimum essential medium) containing 5% horse serum and 5% calf foetus serum.
After morphological examination of the cells, the culture supernatants are collected and the lactate dehydrogenase (LDH) activity therein is measured.

Assay [2] relates to cortical neurons in culture. Kind of assay: In vitro neurotoxicity caused by glutamate in cortical cells (LDH activity). In kind it is cell-based, rat. Particulars: 20 μM; 1 mM glutamate 15 minutes. How it is done: as §1
Just before treatment with glutamate, the culture medium is replaced by 300 μl of saline solution buffered with HEPES. The cells are incubated for 15 minutes together with 1 mM glutamate. The culture media are then replaced by 200 μl of MEM without serum and the cells are incubated at 37° C. for 24 hours. After morphological examination of the cells, the culture supernatants are collected and the lactate dehydrogenase (LDH) activity therein is measured.

Assay [3] relates to motoneurons. The settings on record: Duong et al., Br. J. Pharmacol., 128, 1385-1392; cited from earlier work.
In assay [4] the test system is astrocytes in culture. In words: ATP levels associated with hypoxia in astrocytes maintained in culture. It counts as cell-based, rat. The settings on record: hypoxia 24 hours. The protocol: Cultures of astrocytes are obtained using new-born rats according to the technique described by Booher J. and Sensenbrenner M. (Neurobiology 2, 97-105, […]). They are used three weeks after being placed in culture. […] The concentration of ATP is determined by luminescence and expressed in picomoles of ATP per mg of cellular proteins. The experiments are conducted in triplicate.

Assay [5] has as its system mitochondrial genome. In words: In vivo expression of genes implicated in oxidative stress (RT-PCR, amygdala). The settings on record: rat, 15 mg/kg i.p. for 21 days. How it is done: After sacrifice of the animals and removal of the brains, the total RNA of the amygdala region is extracted and then subjected to an RT-PCR test. In brief, reverse transcription is performed on the extracted RNA, the transcription products are then amplified by chain polymerisation (PCR) and then subjected to high-resolution polyacrylamide gel electrophoresis. The bands of interest are removed from the gel, re-amplified, sequenced and analysed.

For assay [6], the system named is AMPA/kainate receptors. Kind of assay: Patch clamp: current induced by kainate in telencephalic cells in primary culture. In kind it is cell-based, rat. The protocol: Telencephalic cells of 16.5 day-old Wistar rat fetuses were cultured for 12 days. Patch clamp experiments were then conducted at ambient temperature in the following medium: 5 mM KCl, 140 mM NaCl, 10 mM Hepes, 2 mM MgCl2, 2 mM CaCl2 and 10 mM D-glucose (pH=7.3), and the micropipettes were filled with 140 mM KCl, 4 mM NaCl, 10 mM Hepes, 5 mM EGTA and 0.5 mM CaCl2 (pH=7.2).
That effect is measured by the patch clamp technique.

For assay [7], the system named is purified embryonic motoneurons. In words: Death of motoneurons deprived of growth factors (survival count). It counts as cell-based, rat. Particulars: BDNF 1 ng/ml; 2.5 days of culture.
Procedure: Pregnant Sprague-Dawley rats are sacrificed on the 14th day of embryo life. The motoneurons of the embryos are purified according to the method published by C.
The motoneurons are seeded a density of approximately 1000 cells per 16-mm well and are cultured in Neurobasal, supplemented by B27 and horse serum. […] The surviving motoneurons are counted directly.
After 2.5 days of culture, motoneurons are counted in 2 areas of each of the 4 wells. Absolute value per area are presented (mean+/−s.e.m., n=8).

As to `C[C@]12N[C@H](Cc3ccccc31)c1ccccc12` [MK-801], the “protection against the effects of hypoxia (LDH activity)” value in assay [1] came out at 86.3%. Moreover, the “protection against toxicity caused by glutamate (LDH activity)” value in assay [2] is listed as “total protection”.
`Cl.FC(F)(F)c1cccc(C2=CCN(CCc3ccc4ccccc4c3)CC2)c1` [SR57746A]: in assay [3], the “activity on the survival of motoneurons in vitro” value is recorded as “active”.
With `CN1c2ccccc2C(NCCCCCCC(=O)O)c2ccc(Cl)cc2S1(=O)=O` (stereo not drawn) [tianeptine], the “percentage protection of astrocytes (ATP level)” value in assay [4] (10 μM (maximal)) is given as 68%. Further, the “protection of astrocytes (ATP level)” value in assay [4] (0.1-1-10 μM, FIG. 4) is “protects astrocytes in culture in a dose-dependent manner”. Besides, the “expression of mitochondrial genes in the amygdala” value in assay [5] is “overexpression of the mitochondrial genes of NADH ubiquinone reductase (sub-units 2 and 5) and also of genes coding for 16S rRNA, leu-tRNA and val-tRNA”. In addition, in assay [6] (10 μM, without kainate), the “effect on the current entering the cells, compound on its own (direct agonism)” value is recorded as “no effect”. Further, the “effect on the current induced by kainate” value in assay [6] (4, 10 and 25 μM, kainate 250 μM, FIG. 1) is reported as “increases the current induced by kainate”.

B1: Brain-Derived Neurotrophic Factor (protein, UniProt P23560 19-247, looked up)
Neurotrophic factor BDNF …: APMKEANIRGQGGLAYPGVRTHGTLESVNGPKAGSRGLTSLADTFEHVIEELLDEDQKVRPNEENNKDADLYTSRVMLSSQVPLEPPLLFLLEEYKNYLDAANMSMRVRRHSDPARRGELSVCDSISEWVTAADKKTAVDMSGGTVTVLEKVPVSKGQLKQYFYETKCNPMGYTKEGCRGIDKRHWNSQCRTTQSYVRALTMDSKKRIGWRFIRIDTSCVCTLTIKRGR
notes: growth factor, 1 ng/ml, positive control for motoneuron survival
B1: the survival of motoneurons result in assay [7] is reported as “protect the motoneurons from cell death”.
